ChEMBL document CHEMBL1135903 (J Med Chem, 2002)

How the values were obtained:
Carbonic anhydrase 4 = target: T1, Carbonic anhydrase 4 (Bos taurus, UniProt Q95323)
T1 sequence (Q95323 whole entry): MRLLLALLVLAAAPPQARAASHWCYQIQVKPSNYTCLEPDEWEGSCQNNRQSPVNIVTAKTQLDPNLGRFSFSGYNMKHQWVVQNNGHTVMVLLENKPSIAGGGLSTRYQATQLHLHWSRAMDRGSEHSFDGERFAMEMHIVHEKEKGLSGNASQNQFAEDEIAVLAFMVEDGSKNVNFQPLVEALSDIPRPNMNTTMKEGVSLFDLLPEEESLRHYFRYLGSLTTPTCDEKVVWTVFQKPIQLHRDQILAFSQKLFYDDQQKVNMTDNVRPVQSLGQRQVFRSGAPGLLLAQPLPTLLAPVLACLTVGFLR
Description: Inhibitory activity against bovine carbonic anhydrase IV

Carbonic anhydrase 1 = Carbonic anhydrase 1 (Homo sapiens, UniProt P00915)
Chain of Carbonic anhydrase 1 (P00915 whole entry): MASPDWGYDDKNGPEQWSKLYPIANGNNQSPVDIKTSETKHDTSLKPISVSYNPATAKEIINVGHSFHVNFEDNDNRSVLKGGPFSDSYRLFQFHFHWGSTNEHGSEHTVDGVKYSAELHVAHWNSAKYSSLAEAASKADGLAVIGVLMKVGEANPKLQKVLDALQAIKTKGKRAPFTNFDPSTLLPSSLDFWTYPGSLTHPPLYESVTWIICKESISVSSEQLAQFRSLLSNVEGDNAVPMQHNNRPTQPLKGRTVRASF
Description: Inhibitory activity against Human carbonic anhydrase I

SMILES	Ki (Carbonic anhydrase 4) [nM]	Ki (Carbonic anhydrase 1) [nM]
NS(=O)(=O)c1ccccc1NC(=O)CNCCNCC(=O)O	1020	20500
NS(=O)(=O)c1ccc(NC(=O)CN(CCN(CC(=O)O)CC(=O)Nc2ccc(S(N)(=O)=O)cc2)CC(=O)O)cc1 [listing 1 of 2 here]	230	
NS(=O)(=O)c1ccc(NNC(=O)CN(CCN(CCN(CC(=O)O)CC(=O)O)CC(=O)O)CC(=O)O)cc1	630	
NS(=O)(=O)c1ccc(COC(=O)CN(CCN(CC(=O)O)CC(=O)O)CC(=O)O)cc1	335	850
NS(=O)(=O)c1cccc(NC(=O)CN(CCN(CC(=O)O)CC(=O)O)CC(=O)O)c1	750	10000
NS(=O)(=O)c1ccc(NNC(=O)CN(CCN(CCN(CC(=O)O)CC(=O)NNc2ccc(S(N)(=O)=O)cc2)CC(=O)O)CC(=O)O)cc1	430	
NS(=O)(=O)c1ccccc1NC(=O)CN(CCN(CCN(CC(=O)O)CC(=O)O)CC(=O)O)CC(=O)O	550	
NS(=O)(=O)c1cc(S(N)(=O)=O)c(NC(=O)CN(CCN(CCN(CC(=O)O)CC(=O)O)CC(=O)O)CC(=O)O)cc1Cl	52	
NS(=O)(=O)c1ccc(CCOC(=O)CN(CCN(CCN(CC(=O)O)CC(=O)O)CC(=O)O)CC(=O)O)cc1	190	
NS(=O)(=O)c1ccc(NC(=O)CN(CCN(CC(=O)O)CC(=O)Nc2ccc(S(N)(=O)=O)cc2)CC(=O)O)cc1 [listing 2 of 2 here]	210	
NS(=O)(=O)c1cc(S(N)(=O)=O)c(NC(=O)CN(CCN(CCN(CC(=O)O)CC(=O)Nc2cc(Cl)c(S(N)(=O)=O)cc2S(N)(=O)=O)CC(=O)O)CC(=O)O)cc1Cl	41	
NS(=O)(=O)c1ccc(NC(=O)CN(CCN(CCN(CC(=O)O)CC(=O)Nc2ccc(S(N)(=O)=O)cc2)CC(=O)O)CC(=O)O)cc1	100	
NS(=O)(=O)c1cccc(NC(=O)CN(CCN(CCN(CC(=O)O)CC(=O)Nc2cccc(S(N)(=O)=O)c2)CC(=O)O)CC(=O)O)c1	425	
NS(=O)(=O)c1ccc(CNC(=O)CN(CCN(CCN(CC(=O)O)CC(=O)O)CC(=O)O)CC(=O)O)cc1	40	
NS(=O)(=O)c1ccc(COC(=O)CN(CCN(CCN(CC(=O)O)CC(=O)O)CC(=O)O)CC(=O)O)cc1	265	
NS(=O)(=O)c1ccc(CNC(=O)CN(CCN(CC(=O)O)CC(=O)NCc2ccc(S(N)(=O)=O)cc2)CC(=O)O)cc1 [listing 2 of 2 here]	62	
NS(=O)(=O)c1ccc(CCNC(=O)CN(CCN(CC(=O)O)CC(=O)NCCc2ccc(S(N)(=O)=O)cc2)CC(=O)O)cc1 [listing 2 of 2 here]	54	
NS(=O)(=O)c1cccc(NC(=O)CN(CCN(CC(=O)O)CC(=O)Nc2cccc(S(N)(=O)=O)c2)CC(=O)O)c1	620	
NS(=O)(=O)c1ccc(CNC(=O)CN(CCN(CCN(CC(=O)O)CC(=O)NCc2ccc(S(N)(=O)=O)cc2)CC(=O)O)CC(=O)O)cc1 [listing 2 of 2 here]	37	
NS(=O)(=O)c1cccc(NC(=O)CN(CCN(CCN(CC(=O)O)CC(=O)O)CC(=O)O)CC(=O)O)c1	500	
NS(=O)(=O)c1ccc(CCOC(=O)CN(CCN(CCN(CC(=O)O)CC(=O)OCCc2ccc(S(N)(=O)=O)cc2)CC(=O)O)CC(=O)O)cc1	115	
NS(=O)(=O)c1ccccc1NC(=O)CN(CCN(CCN(CC(=O)O)CC(=O)Nc1ccccc1S(N)(=O)=O)CC(=O)O)CC(=O)O	330	
NS(=O)(=O)c1ccc(COC(=O)CN(CCN(CCN(CC(=O)O)CC(=O)OCc2ccc(S(N)(=O)=O)cc2)CC(=O)O)CC(=O)O)cc1	170	

Now from value to compound:

Ki (Carbonic anhydrase 4) [nM]	Ki (Carbonic anhydrase 1) [nM]	SMILES
12		NS(=O)(=O)c1nnc(NC(=O)CN(CCN(CC(=O)O)CC(=O)Nc2nnc(S(N)(=O)=O)s2)CC(=O)O)s1 [listing 1 of 2 here]
13		NS(=O)(=O)c1ccc(CCNC(=O)CN(CCN(CC(=O)O)CC(=O)NCCc2ccc(S(N)(=O)=O)cc2)CC(=O)O)cc1 [listing 1 of 2 here]
29		NS(=O)(=O)c1ccc(NC(=O)CN(CCN(CCN(CC(=O)O)CC(=O)O)CC(=O)O)CC(=O)O)c(F)c1
5		NS(=O)(=O)c1nnc(NC(=O)CN(CCN(CC(=O)O)CC(=O)Nc2nnc(S(N)(=O)=O)s2)CC(=O)O)s1 [listing 2 of 2 here]
27		NS(=O)(=O)c1ccc(NC(=O)CN(CCN(CCN(CC(=O)O)CC(=O)Nc2ccc(S(N)(=O)=O)cc2Cl)CC(=O)O)CC(=O)O)c(Cl)c1
21		NS(=O)(=O)c1ccc(NC(=O)CN(CCN(CCN(CC(=O)O)CC(=O)Nc2ccc(S(N)(=O)=O)cc2Br)CC(=O)O)CC(=O)O)c(Br)c1
32		NS(=O)(=O)c1ccc(NC(=O)CN(CCN(CCN(CC(=O)O)CC(=O)O)CC(=O)O)CC(=O)O)c(Cl)c1
29		NS(=O)(=O)c1ccc(NC(=O)CN(CCN(CCN(CC(=O)O)CC(=O)O)CC(=O)O)CC(=O)O)c(I)c1
8		Cn1nc(S(N)(=O)=O)s/c1=N/C(=O)CN(CCN(CC(=O)O)CC(=O)/N=c1/sc(S(N)(=O)=O)nn1C)CC(=O)O
21		NS(=O)(=O)c1ccc(CNC(=O)CN(CCN(CCN(CC(=O)O)CC(=O)NCc2ccc(S(N)(=O)=O)cc2)CC(=O)O)CC(=O)O)cc1 [listing 1 of 2 here]
16		NS(=O)(=O)c1nnc(NC(=O)CCNC(=O)CN(CCN(CCN(CC(=O)O)CC(=O)O)CC(=O)O)CC(=O)O)s1
24		NS(=O)(=O)c1ccc(NC(=O)CN(CCN(CCN(CC(=O)O)CC(=O)Nc2ccc(S(N)(=O)=O)cc2I)CC(=O)O)CC(=O)O)c(I)c1
6		NS(=O)(=O)c1nc2ccc(NC(=O)CN(CCN(CCN(CC(=O)O)CC(=O)Nc3ccc4nc(S(N)(=O)=O)sc4c3)CC(=O)O)CC(=O)O)cc2s1
18		NS(=O)(=O)c1ccc(NC(=O)CN(CCN(CCN(CC(=O)O)CC(=O)Nc2ccc(S(N)(=O)=O)cc2F)CC(=O)O)CC(=O)O)c(F)c1
5		NS(=O)(=O)c1nc2ccc(OCCOC(=O)CN(CCN(CCN(CC(=O)O)CC(=O)O)CC(=O)O)CC(=O)O)cc2s1
10		NS(=O)(=O)c1ccc(CNC(=O)CN(CCN(CC(=O)O)CC(=O)NCc2ccc(S(N)(=O)=O)cc2)CC(=O)O)cc1 [listing 1 of 2 here]
36		NS(=O)(=O)c1ccc(CCNC(=O)CN(CCN(CCN(CC(=O)O)CC(=O)O)CC(=O)O)CC(=O)O)cc1
25		NS(=O)(=O)c1ccc(CCNC(=O)CN(CCN(CCN(CC(=O)O)CC(=O)NCCc2ccc(S(N)(=O)=O)cc2)CC(=O)O)CC(=O)O)cc1 [listing 1 of 2 here]
36		NS(=O)(=O)c1cc(S(N)(=O)=O)c(NC(=O)CN(CCN(CCN(CC(=O)O)CC(=O)O)CC(=O)O)CC(=O)O)c(Cl)c1Cl
9		NS(=O)(=O)c1nc2ccc(NC(=O)CN(CCN(CCN(CC(=O)O)CC(=O)O)CC(=O)O)CC(=O)O)cc2s1
6		NS(=O)(=O)c1nc2ccc(OC(=O)CN(CCN(CCN(CC(=O)O)CC(=O)O)CC(=O)O)CC(=O)O)cc2s1
16		NS(=O)(=O)c1ccc(CCNC(=O)CN(CCN(CCN(CC(=O)O)CC(=O)NCCc2ccc(S(N)(=O)=O)cc2)CC(=O)O)CC(=O)O)cc1 [listing 2 of 2 here]
27		NS(=O)(=O)c1ccc(NC(=O)CN(CCN(CCN(CC(=O)O)CC(=O)O)CC(=O)O)CC(=O)O)c(Br)c1
4		NS(=O)(=O)c1nnc(NC(=O)CN(CCN(CCN(CC(=O)O)CC(=O)Nc2nnc(S(N)(=O)=O)s2)CC(=O)O)CC(=O)O)s1
8		NS(=O)(=O)c1nnc(NC(=O)CCNC(=O)CN(CCN(CCN(CC(=O)O)CC(=O)NCCC(=O)Nc2nnc(S(N)(=O)=O)s2)CC(=O)O)CC(=O)O)s1
25		NS(=O)(=O)c1cc(S(N)(=O)=O)c(NC(=O)CN(CCN(CCN(CC(=O)O)CC(=O)Nc2c(S(N)(=O)=O)cc(S(N)(=O)=O)c(Cl)c2Cl)CC(=O)O)CC(=O)O)c(Cl)c1Cl
19		Cn1nc(S(N)(=O)=O)s/c1=N/C(=O)CN(CCN(CCN(CC(=O)O)CC(=O)O)CC(=O)O)CC(=O)O
